As usually defined, the IC50 is the concentration at which inhibition is half-maximal. Lower therefore signals higher potency.

Assay [1] addresses GDP-bound NRAS wild-type protein (Homo sapiens, UniProt P01111). The assay can be described thus: Binding to NRAS by surface plasmon resonance (SPR), KD and KD ratio to KRAS. To be noted: ratio of the KD value with respect to GDP-bound NRAS wild-type protein to the KD value with respect to KRAS. The essentials: (§1)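 Single-cycle kinetics on GDP-loaded biotin-Avi RAS captured to ~100–300 RU; 75 s ascending injections, 100 µL/min, 30°C. HBS pH 7.4 + 10 mM MgCl2/10 µM GDP/4% DMSO. 1:1 fit, KD.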
(In general: In SPR one partner is held on a chip, and binding of the other changes the refractive index at the surface.)

The subject of assay [2] is human lung cancer strain NCI-H441. The format is cell-based. The essentials: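 Proliferation was scored by […] measured after the reagent was added to cultures kept at 37°C in 5% carbon dioxide.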
Another assay deals with HRAS wild-type protein (Homo sapiens, UniProt P01112). The assay can be described thus: Binding to HRAS by surface plasmon resonance (SPR), KD and KD ratio to KRAS. To be noted: ratio of the KD value with respect to HRAS wild-type protein to the KD value with respect to KRAS. The essentials: as §1
Chain of HRAS wild-type protein (P01112 whole entry): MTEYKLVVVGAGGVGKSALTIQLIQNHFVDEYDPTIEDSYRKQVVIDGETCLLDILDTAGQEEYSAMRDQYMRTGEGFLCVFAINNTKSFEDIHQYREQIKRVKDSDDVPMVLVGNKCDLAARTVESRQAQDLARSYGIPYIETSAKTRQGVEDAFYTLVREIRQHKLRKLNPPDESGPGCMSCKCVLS

Chain of GDP-bound NRAS wild-type protein (P01111 whole entry): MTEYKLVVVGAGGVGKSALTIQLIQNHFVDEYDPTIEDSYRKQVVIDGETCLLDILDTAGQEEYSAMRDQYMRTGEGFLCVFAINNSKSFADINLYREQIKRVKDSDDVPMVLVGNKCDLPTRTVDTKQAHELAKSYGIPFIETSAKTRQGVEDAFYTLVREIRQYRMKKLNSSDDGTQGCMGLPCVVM

Consider `CCC[C@H]1C(=O)N[C@@H]([C@@H](C)CC)C(=O)N(C)CC(=O)N(C)[C@H]2C/C=C\CCN(C2=O)[C@@H](Cc2ccc(C(F)(F)F)cc2)C(=O)N(C)CC(=O)N[C@@H](CCc2ccc(C(F)(F)F)c(Cl)c2)C(=O)N2C[C@@H](C)C[C@H]2C(=O)NC2(CC(C)(C)C2)C(=O)N(C)[C@@H](C2CCCC2)C(=O)N(C)[C@H](C(=O)N(C)C)CC(=O)N1C` [PP2270], for which, in assay [1], the “NRAS /KRAS” value was “B (a compound having 3 or more and less than 10 is denoted as B)”. Moreover, it took 10.4 nM to reach half-maximal inhibition in assay [2] (IC50). Besides, the “HRAS /KRAS” value at HRAS wild-type protein is “B (a compound having 3 or more and less than 10 is denoted as B)”.
Turning to `CC[C@@H]1C[C@H]2C(=O)NC3(CCCC3)C(=O)N(C)[C@@H](C3CCCC3)C(=O)N(C)[C@H](C(=O)N(C)CC)CC(=O)N(C)[C@@H](C)C(=O)N[C@@H]([C@@H](C)CC)C(=O)N(C)CC(=O)N(C)[C@H]3C/C=C\CCN(C3=O)[C@@H](Cc3ccc(C(F)(F)F)cc3)C(=O)N(C)CC(=O)N[C@@H](CCc3cc(F)c(C(F)(F)F)c(F)c3)C(=O)N2C1` [PP2271], in assay [1], the “NRAS /KRAS” value was “A (a compound having 10 or more and less than 20 is denoted as A)”. Moreover, the IC50 in assay [2] is 60.6 nM. In addition, the “HRAS /KRAS” value on HRAS wild-type protein was “A (a compound having 10 or more and less than 20 is denoted as A)”.
As to `CCC[C@@H]1C[C@H]2C(=O)NC3(CCCC3)C(=O)N(C)[C@@H](C3CCCC3)C(=O)N(C)[C@H](C(=O)N(C)CC)CC(=O)N(C)[C@@H](C)C(=O)N[C@@H]([C@@H](C)CC)C(=O)N(C)CC(=O)N(C)[C@H]3C/C=C\CCN(C3=O)[C@@H](Cc3ccc(C(F)(F)F)cc3)C(=O)N(C)CC(=O)N[C@@H](CCc3cc(F)c(C(F)(F)F)c(F)c3)C(=O)N2C1` [PP2272], in assay [1], the “NRAS /KRAS” value was “AA (a compound having 20 or more is denoted as AA)”. Besides, in assay [2], the IC50 is 106 nM. In addition, on HRAS wild-type protein, the “HRAS /KRAS” value is “A (a compound having 10 or more and less than 20 is denoted as A)”.
Regarding `CCC[C@@H]1C[C@H]2C(=O)NC3(CC(C)(C)C3)C(=O)N(C)[C@@H](C3CCCC3)C(=O)N(C)[C@H](C(=O)N(C)C)CC(=O)N(C)[C@@H](C)C(=O)N[C@@H]([C@@H](C)CC)C(=O)N(C)CC(=O)N(C)[C@H]3C/C=C\CCN(C3=O)[C@@H](Cc3ccc(C(F)(F)F)cc3)C(=O)N(C)CC(=O)N[C@@H](CCc3cc(F)c(C(F)(F)F)c(F)c3)C(=O)N2C1` [PP2273], the “NRAS /KRAS” value in assay [1] is “AA (a compound having 20 or more is denoted as AA)”. The same compound gave an IC50 in assay [2] of 16 nM. For the same compound, the “HRAS /KRAS” value on HRAS wild-type protein was “A (a compound having 10 or more and less than 20 is denoted as A)”.
As for `CCC[C@@H]1C[C@H]2C(=O)NC3(CC(C)(C)C3)C(=O)N(C)[C@@H](C3CCCC3)C(=O)N(C)[C@H](C(=O)N(C)C)CC(=O)N(C)[C@@H](COC)C(=O)N[C@@H]([C@@H](C)CC)C(=O)N(C)CC(=O)N(C)[C@H]3C/C=C\CCN(C3=O)[C@@H](Cc3ccc(C(F)(F)F)cc3)C(=O)N(C)CC(=O)N[C@@H](CCc3ccc(C(F)(F)F)c(Cl)c3)C(=O)N2C1` [PP2275], the “NRAS /KRAS” value in assay [1] is “A (a compound having 10 or more and less than 20 is denoted as A)”. Moreover, the IC50 in assay [2] is 12.2 nM. Also, on HRAS wild-type protein, the “HRAS /KRAS” value is “A (a compound having 10 or more and less than 20 is denoted as A)”.
For the compound `CCC[C@H]1C(=O)N[C@@H]([C@@H](C)CC)C(=O)N(C)CC(=O)N(C)[C@H]2C/C=C\CCN(C2=O)[C@@H](Cc2ccc(C(F)(F)F)cc2)C(=O)N(C)CC(=O)N[C@@H](CCc2ccc(C(F)(F)F)c(OC)c2)C(=O)N2C[C@H](OCC)C[C@H]2C(=O)N(C)C2(CCC2)C(=O)N(C)[C@@H](C2CCCC2)C(=O)N(C)[C@H](C(=O)N(C)C)CC(=O)N1C` [PP2312], the “NRAS /KRAS” value in assay [1] is “A (a compound having 10 or more and less than 20 is denoted as A)”. The IC50 in assay [2] worked out at 1.6 nM. Also, on HRAS wild-type protein, the “HRAS /KRAS” value was “B (a compound having 3 or more and less than 10 is denoted as B)”.
`CCC[C@H]1C(=O)N[C@@H]([C@@H](C)CC)C(=O)N(C2CC2)CC(=O)N(C)[C@H]2C/C=C\CCN(C2=O)[C@@H](Cc2ccc(C(F)(F)F)cc2)C(=O)N(C)CC(=O)N[C@@H](CCc2ccc(C(F)(F)F)c(OC)c2)C(=O)N2C[C@H](OCC)C[C@H]2C(=O)N(C)C2(CCC2)C(=O)N(C)[C@@H](C(CC)CC)C(=O)N(C)[C@H](C(=O)N(C)C)CC(=O)N1C` [PP2313]: the “NRAS /KRAS” value in assay [1] is reported as “AA (a compound having 20 or more is denoted as AA)”. In addition, in assay [2], the midpoint of inhibition, the IC50, lay at 7.4 nM. For the same compound, at HRAS wild-type protein, the “HRAS /KRAS” value is “A (a compound having 10 or more and less than 20 is denoted as A)”.
In the case of `CCC[C@H]1C(=O)N[C@@H]([C@@H](C)CC)C(=O)N(C2CC2)CC(=O)N(C)[C@H]2C/C=C\CCN(C2=O)[C@@H](Cc2ccc(C(F)(F)F)cc2)C(=O)N(C)CC(=O)N[C@@H](CCc2ccc(C(F)(F)F)c(OC)c2)C(=O)N2C[C@H](OCC)C[C@H]2C(=O)N(C)C2(CCC2)C(=O)N(C)[C@@H](C2CCCC2)C(=O)N(C)[C@H](C(=O)N(C)C)CC(=O)N1C` [PP2316], the “NRAS /KRAS” value in assay [1] is “A (a compound having 10 or more and less than 20 is denoted as A)”. Also, the IC50 in assay [2] was found to be 1.6 nM. At HRAS wild-type protein, the “HRAS /KRAS” value was “A (a compound having 10 or more and less than 20 is denoted as A)”.
As for `CCC[C@H]1C(=O)N[C@@H]([C@@H](C)CC)C(=O)N2CCC[C@H]2C(=O)N(C)[C@H]2C/C=C\CCN(C2=O)[C@@H](Cc2ccc(C(F)(F)F)cc2)C(=O)N(C)CC(=O)N[C@@H](CCc2ccc(C(F)(F)F)c(OC)c2)C(=O)N2C[C@H](OCC)C[C@H]2C(=O)N(C)C2(CCC2)C(=O)N(C)[C@@H](C(CC)CC)C(=O)N(C)[C@H](C(=O)N(C)C)CC(=O)N1C` [PP2317], the “NRAS /KRAS” value in assay [1] was “A (a compound having 10 or more and less than 20 is denoted as A)”. For the same compound, the IC50 in assay [2] was 12.5 nM. On HRAS wild-type protein, the “HRAS /KRAS” value is “A (a compound having 10 or more and less than 20 is denoted as A)”.
In the case of `CCOC[C@H]1C(=O)N[C@@H]([C@@H](C)CC)C(=O)N2CCC[C@H]2C(=O)N(C)[C@H]2C/C=C\CCN(C2=O)[C@@H](Cc2ccc(C(F)(F)F)cc2)C(=O)N(C)CC(=O)N[C@@H](CCc2ccc(C(F)(F)F)c(OC)c2)C(=O)N2C[C@H](OCC)C[C@H]2C(=O)N(C)C2(CCC2)C(=O)N(C)[C@@H](C(CC)CC)C(=O)N(C)[C@H](C(=O)N(C)C)CC(=O)N1C` [PP2319], the “NRAS /KRAS” value in assay [1] is recorded as “AA (a compound having 20 or more is denoted as AA)”. Also, it took 9.6 nM to reach half-maximal inhibition in assay [2] (IC50). The “HRAS /KRAS” value on HRAS wild-type protein is “A (a compound having 10 or more and less than 20 is denoted as A)”.
On to `CCCOC[C@H]1C(=O)N[C@@H]([C@@H](C)CC)C(=O)N2CCC[C@H]2C(=O)N(C)[C@H]2C/C=C\CCN(C2=O)[C@@H](Cc2ccc(C(F)(F)F)cc2)C(=O)N(C)CC(=O)N[C@@H](CCc2ccc(C(F)(F)F)c(OC)c2)C(=O)N2C[C@H](OCC)C[C@H]2C(=O)N(C)C2(CCC2)C(=O)N(C)[C@@H](C2CCCC2)C(=O)N(C)[C@H](C(=O)N(C)C)CC(=O)N1C` [PP2322], for which, in assay [1], the “NRAS /KRAS” value is “A (a compound having 10 or more and less than 20 is denoted as A)”. Further, the IC50 in assay [2] stood at 5.8 nM. For the same compound, on HRAS wild-type protein, the “HRAS /KRAS” value is “B (a compound having 3 or more and less than 10 is denoted as B)”.
Take `CCCOC[C@H]1C(=O)N[C@@H]([C@@H](C)CC)C(=O)N(C2CC2)CC(=O)N(C)[C@H]2C/C=C\CCN(C2=O)[C@@H](Cc2ccc(C)cc2)C(=O)N(C)CC(=O)N[C@@H](CCc2ccc(C(F)(F)F)c(OC)c2)C(=O)N2C[C@H](OCC)C[C@H]2C(=O)N(C)C2(CCC2)C(=O)N(C)[C@@H](C(CC)CC)C(=O)N(C)[C@H](C(=O)N(C)C)CC(=O)N1C` [PP2327]: the “NRAS /KRAS” value in assay [1] was “A (a compound having 10 or more and less than 20 is denoted as A)”. Further, the IC50 in assay [2] was determined as 9.9 nM. Further, on HRAS wild-type protein, the “HRAS /KRAS” value was “A (a compound having 10 or more and less than 20 is denoted as A)”.
`CCC[C@H]1C(=O)N[C@@H]([C@@H](C)CC)C(=O)N(C2CC2)CC(=O)N(C)[C@H]2C/C=C\CCN(C2=O)[C@@H](Cc2ccc(C)cc2)C(=O)N(C)CC(=O)N[C@@H](CCc2ccc(C(F)(F)F)c(OC)c2)C(=O)N2C[C@H](OCC)C[C@H]2C(=O)N(C)C2(CCC2)C(=O)N(C)[C@@H](C2CCCC2)C(=O)N(C)[C@H](C(=O)N(C)C)CC(=O)N1C` [PP2328]: in assay [1], the “NRAS /KRAS” value is “A (a compound having 10 or more and less than 20 is denoted as A)”. Moreover, the IC50 in assay [2] came out at 2.2 nM. The “HRAS /KRAS” value at HRAS wild-type protein was “A (a compound having 10 or more and less than 20 is denoted as A)”.
Take `CCC[C@H]1C(=O)N[C@@H]([C@@H](C)CC)C(=O)N2CCC[C@H]2C(=O)N(C)[C@H]2C/C=C\CCN(C2=O)[C@@H](Cc2ccc(C)cc2)C(=O)N(C)CC(=O)N[C@@H](CCc2ccc(C(F)(F)F)c(OC)c2)C(=O)N2C[C@H](OCC)C[C@H]2C(=O)N(C)C2(CCC2)C(=O)N(C)[C@@H](C(CC)CC)C(=O)N(C)[C@H](C(=O)N(C)C)CC(=O)N1C` [PP2329]: in assay [1], the “NRAS /KRAS” value is “A (a compound having 10 or more and less than 20 is denoted as A)”. In assay [2], the IC50 stood at 6.5 nM. Also, the “HRAS /KRAS” value on HRAS wild-type protein is “A (a compound having 10 or more and less than 20 is denoted as A)”.
On to `CCCOC[C@H]1C(=O)N[C@@H]([C@@H](C)CC)C(=O)N(C2CC2)CC(=O)N(C)[C@H]2C/C=C\CCN(C2=O)[C@@H](Cc2ccc(C)cc2)C(=O)N(C)CC(=O)N[C@@H](CCc2ccc(C(F)(F)F)c(OC)c2)C(=O)N2C[C@H](OCC)C[C@H]2C(=O)N(C)C2(CCC2)C(=O)N(C)[C@@H](C2CCCC2)C(=O)N(C)[C@H](C(=O)N(C)C)CC(=O)N1C` [PP2330], for which the “NRAS /KRAS” value in assay [1] was “A (a compound having 10 or more and less than 20 is denoted as A)”. Moreover, in assay [2], the IC50 was determined as 5.5 nM. The “HRAS /KRAS” value on HRAS wild-type protein was “A (a compound having 10 or more and less than 20 is denoted as A)”.
